Reference: patent publication US7781565B2 (priority 2006, dated 2010)

system: NCI-60 cell lines; type: cell-based, human

Substance	Cell Line the peptide is associated with (peptide recovered from phage library selection on this NCI-60 cell line)	Cell Line with which the peptide (and its tripeptide motif) is associated	Cell Line (NCI-60 cell line the peptide and its motif are associated with)	Cell Line (NCI-60 cell line the peptide is associated with)
ALVSTIL	UO31 Renal	–	–	–
SGGLVLT	–	Hop-92-Lung	–	–
RGRLALL	–	–	M14 Melanoma	–
GTPAVSY	NCI/ADR-RES Breast	–	–	–
SLGSVGS	–	EKVX-Lung	–	–
AARAVWG	RXF393 Renal	–	–	–
GLVARVR	–	–	SK-MEL-28 Melanoma	–
FGLRNSR	–	HL-60-Leukemia	–	–
ASLRYYV	–	SR Leukemia	–	–
DLRRAGS	–	–	–	SW620-Colon
LLSILKA	–	–	IGROV1 Ovarian	–
PLAVGLV	–	–	–	HCT-116 Colon
AARGELR	–	–	UACC62 Melanoma	–
QGSSNSV	–	–	IGROV1 Ovarian	–
GGSQCDT	–	K-562-Leukemia	–	–
PRASSTG	SN12C Renal	–	–	–
QAGSFLR	–	EKVX-Lung	–	–
TRRGRLD	SN12C Renal	–	–	–
SRYGVLV	–	EKVX-Lung	–	–
MRPGLRS	MDA-MB-231 Breast	–	–	–
GGAVLVA	–	CCRF-CEM Leukemia	–	–
LYLLSSA	–	–	SK-MEL-5 Melanoma	–
GWVAVSC	–	–	–	LOX-IMVI Melanoma
GVLEGRR	–	–	UACC 257 Melanoma	–
AVALGGS	–	–	UACC 257 Melanoma	–
LVSGYNG	–	Hop-92-Lung	–	–

Substance	Cell Line the peptide is associated with (peptide recovered from phage library selection on this NCI-60 cell line)	Cell Line with which the peptide (and its tripeptide motif) is associated	Cell Line (NCI-60 cell line the peptide and its motif are associated with)	Cell Line (NCI-60 cell line the peptide is associated with)
MQGRVIV	–	–	SK-OV-3-3 Ovarian	–
GLGRSVN	T-47D Breast	–	–	–
SGVSVEG	–	Hop-62-Lung	–	–
LYVDASL	MDA-MB-435-Breast	–	–	–
APGRLGP	–	–	OVCAR-4 Ovarian	–
VAWRGVS	–	A549-Lung	–	–
RLSMASR	ACHN Renal	–	–	–
GRLAAGS	MCF-7 Breast	–	–	–
GVRGGGD	CAIK-1 Renal	–	–	–
RSSYAPP	ACHN Renal	–	–	–
ERGVFVY	T-47D Breast	–	–	–
LHAGSSV	MDA-MB-231 Breast	–	–	–
EVRSRGS	–	EKVX-Lung	–	–
SGVSRGQ	–	Hop-92-Lung	–	–
SLTRAVR	–	Hop-92-Lung	–	–
LQHLGSG	–	–	OVCAR-8 Ovarian	–
WRARASP	–	–	UACC62 Melanoma	–
SGSSVRY	–	–	–	SNB-75 CNS
AGLGHEG	–	H23-Lung	–	–
RRDGLVE	–	–	786-0 Renal	–
RAAGGSR	–	RPMI-8226-Leukemia	–	–
AGPSAWL	–	Hop-92-Lung	–	–
WRLSREG	–	–	SK-MEL-2 Melanoma	–
RALGLVS	–	CCRF-CEM Leukemia	–	–
GRYSLRS	–	RPMI-8226-Leukemia	–	–
RPWGAVA	–	–	SK-OV-3-3 Ovarian	–
